What was measured:
Type in all cases: in vivo
[1] = tested on: barnyardgrass (Echinochloa crus-galli); experiment: Test G Pre-Emergence Protocol; conditions: evaluated after 13 days
Procedure: (§1) Seeds of corn (Zea mays), giant foxtail (Setaria faberi), barnyardgrass (Echinochloa crus-galli), ivy-leaved morning glory (Ipomoea hederacea), redroot pigweed (Amaranthus retroflexus) and velvetleaf (Abutilon theophrasti) were sown in standard soil in pots. After cultivation for one day under controlled conditions in a glasshouse (at 24/16° C., day/night; 14 hours light; 65% humidity), the plants were sprayed with an aqueous spray solution derived from the formulation of the technical active ingredient in acetone/water (50:50) solution containing 0.5% Tween 20 (polyoxyethylene sorbitan monolaurate, CAS RN 9005-64-5) to give a final dose of 15.625, 62.5 or 250 g/ha of test compound.
(§2) The test plants were then grown on under controlled conditions in a glasshouse (at 24/16° C., day/night; 14 hours light; 65% humidity) and watered twice daily. After 13 days the test was evaluated (100=total damage to plant; 0=no damage to plant). A dash (-) means no test result.

[2] = tested on: corn (Zea mays); experiment: Test G Pre-Emergence Protocol; conditions: evaluated after 13 days
Procedure: as §1, §2

[3] = tested on: giant foxtail (Setaria faberi); experiment: Test G Pre-Emergence Protocol; conditions: evaluated after 13 days
Procedure: as §1, §2

[4] = tested on: ivy-leaved morning glory (Ipomoea hederacea); experiment: Test G Pre-Emergence Protocol; conditions: evaluated after 13 days
Procedure: as §1, §2

[5] = tested on: redroot pigweed (Amaranthus retroflexus); experiment: Test G Pre-Emergence Protocol; conditions: evaluated after 13 days
Procedure: as §1, §2

[6] = tested on: velvetleaf (Abutilon theophrasti); experiment: Test G Pre-Emergence Protocol; conditions: evaluated after 13 days
Procedure: as §1, §2

[7] = tested on: barnyardgrass (Echinochloa crus-galli); experiment: Test G Post-Emergence Protocol
Procedure: as §1, with “8 days” for “one day”
as §2

[8] = tested on: corn (Zea mays); experiment: Test G Post-Emergence Protocol; conditions: for Corn damage rating: evaluated after 13 days, 100=total damage to plant, 0=no damage to plant
Procedure: as §1, with “8 days” for “one day”
as §2

[9] = tested on: giant foxtail (Setaria faberi); experiment: Test G Post-Emergence Protocol
Procedure: as §1, with “8 days” for “one day”
as §2

[10] = tested on: ivy-leaved morning glory (Ipomoea hederacea); experiment: Test G Post-Emergence Protocol
Procedure: as §1, with “8 days” for “one day”
as §2

[11] = tested on: redroot pigweed (Amaranthus retroflexus); experiment: Test G Post-Emergence Protocol; conditions: for Pigweed, Redroot damage rating: evaluated after 13 days, 100=total damage to plant, 0=no damage to plant
Procedure: as §1, with “8 days” for “one day”
as §2

[12] = tested on: velvetleaf (Abutilon theophrasti); experiment: Test G Post-Emergence Protocol; conditions: for Velvetleaf damage rating: evaluated after 13 days, 100=total damage to plant, 0=no damage to plant
Procedure: as §1, with “8 days” for “one day”
as §2

[13] = 62.5 g ai/ha, 100=total damage to plant, 0=no damage to plant
[14] = 15.625 g ai/ha, evaluated after 13 days (100=total damage to plant; 0=no damage to plant)
[15] = 62.5 g ai/ha, evaluated after 13 days, 100=total damage to plant, 0=no damage to plant
[16] = 250 g ai/ha, evaluated after 13 days, 100=total damage to plant, 0=no damage to plant

SMILES: CN1C[C@@H](c2ccc(C(F)(F)F)cc2)[C@H](C(=O)Nc2cccnc2F)C1=O (racemic) [Compound 1653]
- Barnyardgrass damage rating [1, 13]: 80
- Barnyardgrass damage rating (100=total damage to plant; 0=no damage to plant) ([1]; 250 g ai/ha): 80
- pest or weed control at 15.625 g/ha ([1]; Echinochloa crus-galli, pre-emergence, 312 h, 15.625 g ai/ha, read-out: Barnyardgrass damage rating (100=total damage to plant; 0=no damage to plant)): 0%
- Corn damage rating [2, 13]: 30
- Corn damage rating (100=total damage to plant; 0=no damage to plant) ([2]; 250 g ai/ha): 80
- plant injury at 15.625 g/ha ([2]; Zea mays, pre-emergence, 312 h, 15.625 g ai/ha, read-out: Corn damage rating (100=total damage to plant; 0=no damage to plant)): 0%
- Foxtail, Giant damage rating (100=total damage to plant; 0=no damage to plant) ([3]; 15.625 g ai/ha): 60
- Foxtail, Giant damage rating [3, 13]: 90
- Foxtail, Giant damage rating (100=total damage to plant; 0=no damage to plant) ([3]; 250 g ai/ha): 90
- Morningglory, Ivy-leaved damage rating (100=total damage to plant; 0=no damage to plant) ([4]; 250 g ai/ha): 20
- pest or weed control at 15.625 g/ha ([4]; Ipomoea, pre-emergence, 312 h, 15.625 g ai/ha, read-out: Morningglory, Ivy-leaved damage rating (100=total damage to plant; 0=no damage to plant)): 0%
- pest or weed control at 62.5 g/ha ([4]; Ipomoea, pre-emergence, 312 h, 62.5 g ai/ha, 100=total damage to plant, 0=no damage to plant, read-out: Morningglory, Ivy-leaved damage rating): 0%
- Pigweed, Redroot damage rating [5, 13]: 40
- Pigweed, Redroot damage rating (100=total damage to plant; 0=no damage to plant) ([5]; 250 g ai/ha): 80
- pest or weed control at 15.625 g/ha ([5]; Amaranthus retroflexus, pre-emergence, 312 h, 15.625 g ai/ha, read-out: Pigweed, Redroot damage rating (100=total damage to plant; 0=no damage to plant)): 0%
- Velvetleaf damage rating [6, 13]: 10
- Velvetleaf damage rating (100=total damage to plant; 0=no damage to plant) ([6]; 250 g ai/ha): 50
- pest or weed control at 15.625 g/ha ([6]; Abutilon theophrasti, pre-emergence, 312 h, 15.625 g ai/ha, read-out: Velvetleaf damage rating (100=total damage to plant; 0=no damage to plant)): 0%
- Barnyardgrass damage rating [7, 14]: 30
- Barnyardgrass damage rating [7, 15]: 60
- Barnyardgrass damage rating [7, 16]: 80
- Corn damage rating ([8]; 62.5 g ai/ha): 30
- Corn damage rating ([8]; 250 g ai/ha): 70
- plant injury at 15.625 g/ha ([8]; Zea mays, post-emergence, 312 h, 15.625 g ai/ha, evaluated after 13 days (100=total damage to plant; 0=no damage to plant), read-out: Corn damage rating): 0%
- Foxtail, Giant damage rating [9, 14]: 60
- Foxtail, Giant damage rating [9, 15]: 80
- Foxtail, Giant damage rating [9, 16]: 80
- Morningglory, Ivy-leaved damage rating [10, 14]: 10
- Morningglory, Ivy-leaved damage rating [10, 15]: 30
- Morningglory, Ivy-leaved damage rating [10, 16]: 40
- Pigweed, Redroot damage rating ([11]; 62.5 g ai/ha): 70
- Pigweed, Redroot damage rating ([11]; 250 g ai/ha): 80
- pest or weed control at 15.625 g/ha ([11]; Amaranthus retroflexus, post-emergence, 312 h, 15.625 g ai/ha, evaluated after 13 days (100=total damage to plant; 0=no damage to plant), read-out: Pigweed, Redroot damage rating): 0%
- Velvetleaf damage rating ([12]; 62.5 g ai/ha): 40
- Velvetleaf damage rating ([12]; 250 g ai/ha): 50
- pest or weed control at 15.625 g/ha ([12]; Abutilon theophrasti, post-emergence, 312 h, 15.625 g ai/ha, evaluated after 13 days (100=total damage to plant; 0=no damage to plant), read-out: Velvetleaf damage rating): 0%
